According to US20250304549A1, “HYDROXYAMIDE DERIVATIVE AND USE THEREOF” (SICHUAN HUIYU PHARMACEUTICAL CO., LTD., priority 2022, published 2025):
Where a name gives a salt, the structure may show the parent alone.

What was measured:
[1] = target: LSD1 (Homo sapiens (Human), UniProt O60341); experiment: In vitro enzyme inhibition assay - LSD1 (HTRF); assay type: biochemical
[2] = system: NCI-H1417 cells; experiment: In vitro cell inhibition assay - H1417 cell proliferation (CellTiter-Glo); assay type: cell-based; settings: Homo sapiens, NCI-H1417, H1417 small cell lung cancer cell proliferation
How it was run: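 Cells exposed to 8 compound concentrations (5-fold dilutions) in BEGM with 10% FBS for 7 days at 37° C., 5% CO2. Viable cells measured by CellTiter-Glo luminescence; inhibition versus no-inhibitor and no-cell controls, IC50 fitted.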

[3] = system: NCI-H69 cells; experiment: In vitro cell inhibition assay - NCI-H69 cell proliferation (CellTiter-Glo); assay type: cell-based; settings: Homo sapiens, NCI-H69, H69 small cell lung cancer cell proliferation
How it was run: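 NCI-H69 cells seeded at 1×10^3 per well overnight, then given 8 compound concentrations (5-fold dilutions) in RPMI-640 with 20% FBS for 7 days at 37° C., 5% CO2. Viable cells by CellTiter-Glo luminescence; IC50 fitted from inhibition rate versus no-inhibitor and no-cell controls.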

[4] = system: NCI-H526 cells; experiment: In vitro cell inhibition assay - NCI-H526 cell proliferation (CellTiter-Glo); assay type: cell-based; settings: Homo sapiens, NCI-H526, 120 h, H526 small cell lung cancer cell proliferation, 5 days
Protocol: 6. In Vitro Cell Inhibition Assay—NCI-H526 Cell Proliferation
The inhibitory effect of the compounds on cell proliferation was assessed by detecting the number of viable cells using CellTiter-Glo® reagent. NCI-H526 cells in the logarithmic growth phase were collected and inoculated into transparent bottom 96-well plates at a density 1×10^3 cells per well with 100 μL of medium, and incubated at 37° C., 5% CO2 overnight. The compounds were sequentially diluted in a 5-fold concentration gradient with DMSO to obtain 8 different concentrations. These were then diluted with RPMI-640 (containing 10% FBS) cell culture medium to obtain the compound working solution (2×), which was added to the cell supernatant at 100 μL per well. The incubation continued for 5 days at 37° C., 5% CO2. The plate was then removed and equilibrated at room temperature (25° C.) along with the CellTiter-Glo® mixing reagent for 10-30 minutes; 80 μL of the culture medium was carefully aspirated from each well, and 80 μL of CellTiter-Glo® reagent was added. The cells were thoroughly mixed with the CellTiter-Glo® mixing reagent using a microplate shaker for 2 min. and then incubated at room temperature for 10 min. The 96-well plate was subsequently placed on a multifunctional microplate reader to record the Luminescence values (RLU).
The inhibition rate was calculated using the following formula: […]
Note: ‘Negative’ refers to the group without inhibitors; ‘Blank’ refers to the group without cells.
The IC50 value was determined by fitting the inhibition rate by GraphPad Prism software.

[5] = target: pan-HDAC; experiment: In vitro enzyme inhibition assay - HDAC (HDAC-Glo I/II), pan-HDAC; assay type: biochemical
How it was run: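 Eight compound concentrations (5-fold steps from a 1 mM DMSO stock) tested against pan-HDAC, HDAC1 and HDAC8 with HDAC-Glo I/II reagents, luminescence read-out. Percent inhibition normalized to no-inhibitor and no-enzyme wells; IC50 derived by four-parameter logistic fit.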

[6] = target: HDAC8 (Homo sapiens (Human), UniProt Q9BY41); experiment: In vitro enzyme inhibition assay - HDAC (HDAC-Glo I/II), HDAC8; assay type: biochemical; settings: read-out: HDAC IC50 (nM) HDAC 8
Protocol: 2. In Vitro Enzyme Inhibition Assay—HDAC
The effect of the compound on the enzymatic activity of pan-HDAC and two isoforms (HDAC1 and HDAC8) was examined using the HDAC-Glo I/II Assay and Screening System assay to assess the level of inhibition of HDAC protease activity and selectivity in each isoform. The proteins and detection reagents were from the HDAC-Glo™ I/II Assay and Screening System (Promega). A 1 mM stock solution of the compound was prepared in DMSO and diluted in a 5-fold gradient to create a series of 8 concentrations, and a specific volume of the highest concentration was diluted 25 times with HDAC Buffer to obtain 4× working solution of the compound. […] The 384-well plate was then read on a multifunctional microplate reader, with the Luminescence channel selected to record Luminescence values (RLU). The inhibition rate was calculated using the following formula: […]
Note: ‘Negative’ refers to the group without the inhibitor; ‘Blank’ refers to the group without the enzyme.
The IC50 value was calculated by fitting the inhibition rate by GraphPad Prism software, employing log (inhibitor) vs. response-Variable Slope (four parameters) model.

Chain of HDAC8 (Q9BY41 whole entry): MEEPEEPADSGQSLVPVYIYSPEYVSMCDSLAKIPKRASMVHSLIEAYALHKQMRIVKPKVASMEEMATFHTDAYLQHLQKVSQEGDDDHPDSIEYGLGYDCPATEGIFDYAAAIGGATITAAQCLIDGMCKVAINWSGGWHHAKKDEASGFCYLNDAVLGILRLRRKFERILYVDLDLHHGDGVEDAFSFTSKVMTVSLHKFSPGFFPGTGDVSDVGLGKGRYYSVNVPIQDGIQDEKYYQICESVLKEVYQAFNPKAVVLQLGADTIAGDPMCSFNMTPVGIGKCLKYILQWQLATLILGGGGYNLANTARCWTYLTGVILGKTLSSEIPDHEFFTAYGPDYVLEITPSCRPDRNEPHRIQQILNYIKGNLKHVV

SMILES | IC50 [1] | IC50 [2] | IC50 [3] | IC50 [4] | IC50 [5] | IC50 [6]
COc1ccc(-c2cnc(N3CCC(NCc4ccc(/C=C/C(=O)NO)cc4)CC3)c(C#N)c2-c2cnc(C#N)c(F)c2)cc1O [Example 249, (E)-3-(4-(((1-(3′,6-Dicyano-5-fluoro-5′-(3-hydroxy-4-methoxyphenyl)-[3,4′-bipyridin]-2′-yl)piperidin-4-yl)amino)methyl)phenyl)-N-hydroxyacrylamide formate] | 1.1 nM | 1.26 nM | 2.74 nM | 11.7 nM | 0.86 nM | 
CC(C)(O)COc1ccc(-c2cnc(N3CCC(NCc4ccc(/C=C/C(=O)NO)nc4)CC3)c(CC#N)c2-c2ccc(C#N)c(F)c2)cc1O [Example 221, (E)-3-(5-(((1-(4-(4-Cyano-3-fluorophenyl)-3-(cyanomethyl)-5-(3-hydroxy-4-(2-hydroxy-2-methylpropoxy)phenyl)pyridin-2-yl)piperidin-4-yl)amino)methyl)pyridin-2-yl)-N-hydroxyacrylamide formate] | 17.1 nM | 16.8 nM | 19.3 nM | 29 nM | 2.2 nM | 
O=C(CCCCCCC(=O)Nc1ccccc1)NO [SAHA, Vorinostat, reference compound] |  |  |  | 397 nM |  | 
COc1cc(OC)c(-c2cnc(N3CCC(NCc4ccc(/C=C/C(=O)NO)cc4)CC3)c(C#N)c2-c2ccc(C#N)c(F)c2)cc1O [Example 165, (E)-3-(4-(((1-(3-Cyano-4-(4-cyano-3-fluorophenyl)-5-(5-hydroxy-2,4-dimethoxyphenyl)pyridin-2-yl)piperidin-4-yl)amino)methyl)phenyl-N-hydroxyacrylamide hydrochloride] | 1.35 nM | 11.4 nM | 114 nM |  | 7.31 nM | 145 nM
COc1ccc(-c2cnc(N3CCC(NCc4ccc(/C=C/C(=O)NO)cc4)CC3)c(C#N)c2-c2ccc(C#N)c(O)c2)cc1O [Example 166, (E)-3-(4-(((1-(3-Cyano-4-(4-cyano-3-hydroxyphenyl)-5-(3-hydroxy-4-methoxyphenyl)pyridin-2-yl)piperidin-4-yl)amino)methyl)phenyl-N-hydroxyacrylamide hydrochloride] | 15.1 nM | 61.6 nM | 208 nM |  | 2.27 nM | 64 nM
COc1ccc(-c2cnc(N3CCC(NCC4CC=C(/C=C/C(=O)NO)CC4)CC3)c(C#N)c2-c2ccc(C#N)c(F)c2)cc1O (centres unmarked) [Example 155, (E)-3-(4-(((1-(3-Cyano-4-(4-cyano-3-fluorophenyl)-5-(3-hydroxy-4-methoxyphenyl)pyridin-2-yl)piperidin-4-yl)amino)methyl)cyclohex-1-en-1-yl)-N-hydroxyacrylamide formate] | 0.58 nM | 11.5 nM | 314 nM |  | 20 nM | 23.7 nM
N#Cc1ccc(-c2c(-c3ccc(C(F)(F)F)c(O)c3)cnc(N3CCC(NCc4cnc(CCC(=O)NO)nc4)CC3)c2C#N)cc1F [Example 195, 3-(5-(1-(3-Cyano-4-(4-cyano-3-fluorophenyl)-5-(3-hydroxy-4-trifluoromethylphenyl)pyridin-2-yl)piperidin-4-ylamino)methyl) pyrimidin-2-yl)-N-hydroxypropanamide formate] | 4.12 nM | 52.4 nM | 1670 nM |  | 11.8 nM | 172 nM
COc1ccc(-c2cnc(N3CCC(NCc4ccc(CCC(=O)NO)cc4)CC3)c(C#N)c2-c2ccc(C#N)c(F)c2)cc1O [Example 43, 3-(4-((1-(3-Cyano-4-(4-cyano-3-fluorophenyl)-5-(3-hydroxy-4-methoxyphenyl)pyridin-2-yl)piperidin-4-yl)amino)methyl)phenyl)-N-hydroxypropanamide formate] | 0.62 nM | 4.96 nM | 38.5 nM | 35.3 nM |  | 
COc1ccc(-c2cnc(N3CCC(NCc4ccc(/C=C/C(=O)NO)cc4C)CC3)c(C#N)c2-c2ccc(C#N)c(F)c2)cc1O [Example 211, (E)-3-(4-(((1-(3-Cyano-4-(4-cyano-3-fluorophenyl)-5-(3-hydroxy-4-methoxyphenyl)pyridin-2-yl)piperidin-4-yl)amino)methyl)-3-methylphenyl)-N-hydroxyacrylamide formate] | 0.31 nM | 10.7 nM | 189 nM |  | 2.04 nM | 83.5 nM
COc1ccc(-c2cnc(N3CCN(CCc4ccc(/C=C/C(=O)NO)cc4)CC3)c(C#N)c2-c2ccc(C#N)c(F)c2)cc1O [Example 49, (E)-3-(4-(2-(4-(3-Cyano-4-(4-cyano-3-fluorophenyl)-5-(3-hydroxy-4-methoxyphenyl)pyridin-2-yl)piperazin-1-yl)ethyl)phenyl)-N-hydroxyacrylamide hydrochloride] |  | 80.1 nM | 232 nM | 333 nM |  | 
COc1ccc(-c2cnc(N3CCC(NCc4ccc(/C=C/C(=O)NO)o4)CC3)c(C#N)c2-c2ccc(C#N)c(F)c2)cc1O [Example 178, (E)-3-(5-(((1-(3-Cyano-4-(4-cyano-3-fluorophenyl)-5-(3-hydroxy-4-methoxyphenyl)pyridin-2-yl)piperidin-4-yl)amino)methyl)furan-2-yl)-N-hydroxyacrylamide formate] | 0.65 nM | 4.21 nM | 906 nM |  | 588 nM | 1710 nM
COc1ccc(-c2cnc(N3CCC(NCc4ccc5sc(C(=O)NO)cc5c4)CC3)c(C#N)c2-c2ccc(C#N)c(F)c2)cc1O [Example 173, 5-(((1-(3-Cyano-4-(4-cyano-3-fluorophenyl)-5-(3-hydroxy-4-methoxyphenyl)pyridin-2-yl)piperidin-4-yl)amino)methyl)-N-hydroxybenzo[b] thiophene-2-carboxamide formate] | 0.82 nM | 2.23 nM | 613 nM |  | 114 nM | 252 nM
C/C(=C\C(=O)NO)c1ccc(CNC2CCN(c3ncc(-c4ccc(OCC(C)(C)O)c(O)c4)c(-c4ccc(C#N)c(F)c4)c3C#N)CC2)cc1 [Example 212, (E)-3-(4-(((1-(3-Cyano-4-(4-cyano-3-fluorophenyl)-5-(3-hydroxy-4-(2-hydroxy-2-methylpropoxy)phenyl)pyridin-2-yl)piperidin-4-yl)amino)methyl)phenyl)-N-hydroxybut-2-enamide hydrochloride] | 0.04 nM | 1.16 nM | 53.8 nM |  | 6.55 nM | 41.5 nM
COc1ccc(-c2cnc(N3CCC(NCc4ccc(/C=C/C(=O)NO)nn4)CC3)c(C#N)c2-c2ccc(C#N)c(F)c2)cc1O [Example 160, (E)-3-(6-(((1-(3-Cyano-4-(4-cyano-3-fluorophenyl)-5-(3-hydroxy-4-methoxyphenyl)pyridin-2-yl)piperidin-4-yl)amino)methyl)pyridazin-3-yl)-N-hydroxyacrylamide formate] | 1.12 nM | 5.59 nM | 80.6 nM |  | 1.48 nM | 184 nM
CC(C)(O)COc1ccc(-c2cnc(N3CCC(NCc4ccc(CCC(=O)NO)nc4)CC3)c(C#N)c2-c2ccc(C#N)c(F)c2)cc1O [Example 204, 3-(5-((((1-(3-Cyano-4-(4-cyano-3-fluorophenyl)-5-(3-hydroxy-4-(2-hydroxy-2-methylpropoxy)phenyl)pyridin-2-yl)piperidin-4-yl)amino)methyl)pyridin-2-yl)-N-hydroxypropanamide formate] | 1.58 nM | 5.14 nM | 89.2 nM |  | 2.37 nM | 26.2 nM
